PMC12645191, “Dicarboxylate and dicarboxylic acid appended supramolecular self-associating amphiphiles as antimicrobial agents against high priority bacterial pathogens” (Organic & Biomolecular Chemistry, 2025)
Several values for one entry are separate records, joined by “and”; a condition that tells them apart may be missing. Equal values may be shown once.

Assays:
[1] = tested on: P. aeruginosa PAO1; test: inhibition of bacterial growth, OD600 after 20 h; type: cell-based, Pseudomonas aeruginosa; conditions: SSA 5.0 mM, 2.5% ethanol, negative = enhanced growth
Experimental: (§1) With the self-associative properties of 1–10 established, the antimicrobial activity of these SSAs were determined against a panel of clinically relevant, high-priority pathogens including: P. aeruginosa PAO1; Klebsiella pneumonia (K. pneumoniae) M6; E. coli NCTC 12923; Acinetobacter baumannii (A. baumannii) ATCC 17978; S. aureus ATCC 9144; Enterococcus faecalis (E. faecalis) NCTC 775; and Enterococcus faecium (E. faecium) NCTC 12204. […] However, it should be noted that the SSA stock solution was prepared in a H2O 5% EtOH solution, to ensure that the SSA aggregates formed were in line with those characterised within the scope of the SSA self-association studies.
(§2) Section 3: Biological methods
(§3) These methods were taken directly from UK Health and Security Office (UKHSA) standard […]
(§4) Preparation of Luria Broth media (LB): Yeast extract (5.0 g), tryptone (10.0 g) and sodium chloride (10.0 g) were dissolved in dH₂O (1.0 L) then divided into bottles and autoclaved.
(§5) Preparation of Luria Broth (LB) agar plates: Agar (6.0 g) was added to LB (400 mL) and autoclaved. Once cool, the LB agar was poured into sterile petri dishes under sterile conditions and allowed to set. LB plates were stored at 4 °C until use.
(§6) Preparation of bacterial plates: Sterile LB agar plates were streaked using streaked using the desired bacteria i) Pseudomonas aeruginosa (P.aeruginosa) PAO1, ii) Klebsiella pneumoniae (K. pneumoniae) M6 iii) E. coli NCTC 12923 and iv) Acinetobacter baumannii (A. baumannii) ATCC 17978 and Gram-positive i) Staphylococcus aureus (S. aureus) ATCC 9144 ii) Enterococcus faecalis (E. faecalis) NCTC 775 and iii) Enterococcus faecium (E. faecium ) NCTC 12204, then incubated at 37 °C overnight.
(§7) Preparation of Inoculum: An initial culture was made up by inoculating LB media (5 mL) with a single colony of bacteria under sterile conditions and incubated at 37 °C with shaking overnight. The following day, overnight bacterial cultures were subcultured into fresh LB medium to a starting OD600 of 0.01.
(§8) Preparation of 96 well microplate for MIC50: The 1:100 cell suspension (150 µL) was dispensed into individual wells under sterile conditions. SSAs (30 µL) were added to the wells to equal a total volume of 180 µL in the wells. Six repeats of each concentration for each SSA were created each plate. The plates were sealed using parafilm, then incubated at 37 °C in a microplate reader for 20 hours. OD600 endpoint data was used to generate growth curves. […]

[2] = quantitative (Q) 1H NMR spectroscopy, proportion of SSA becoming NMR silent (higher-order aggregates); type: physicochemical
Experimental: To confirm the presence of higher order self-associative structures quantitative (Q) ^1H NMR spectroscopy studies were undertaken at 5.6 mM in D2O 5% EtOH. Here the ^1H NMR resonances attributed to the EtOH are used as an internal standard.
Table S1 – Overview of results of the quantitative (Q) 1H NMR studies for 1, 3, 5, 7 and 9
5.0 % EtOH . Values given in % represent the observed proportion of the SSA that has become
Table S2 – Overview of results of the quantitative (Q) 1H NMR studies for 2, 4, 6, 8 and 10
5.0 % EtOH. Values given in % represent the observed proportion of anion and cation that has

[3] = tested on: E. coli NCTC 12923; test: inhibition of bacterial growth, OD600 after 20 h; type: cell-based, Escherichia coli; conditions: SSA 5.0 mM, 2.5% ethanol, negative = enhanced growth
Experimental: as §1, §2, §3, §4, §5, §6, §7, §8

[4] = dynamic light scattering (DLS) of SSA aggregates; type: physicochemical; conditions: 5.6 mM, H2O 5.0% EtOH, 298 K
Experimental: Dynamic light scattering (DLS) and zeta potential measurements in H2O 5.0% EtOH were used to determine the hydrodynamic diameter (dH) and stability of the higher-order SSA aggregates detected by (Q) ^1H NMR spectroscopy at 5.6 mM, Table 1. […] However, we are unable to confidently report a dH for 1 due to the instability of this system, which is supported by a zeta potential value of −26 mV, obtained for this SSA under the same experimental conditions. […] Due to the instability of these systems in the absence of solvent, attempts to further characterise these systems through SEM or AFM are not possible.[48]

## O=C(O)CC[C@H](NC(=O)Nc1ccc(C(F)(F)F)cc1)C(=O)O [SSA 1]
[1]
  Percentage inhibition of bacterial growth, PAO1 (P. aeruginosa): -28.56% and −29%
[2]; 5.6 mM, D2O 5.0% EtOH, 298 K
  (Q) 1H NMR spectroscopy, proportion NMR silent, acid or anion: 38.5% and 39%
[2]; ~112 mM, DMSO-d6 1.0% DCM
  (Q) 1H NMR, proportion NMR silent, SSA acid or anion: 0%
[3]
  Percentage inhibition of bacterial growth, NCTC 12923 (E. coli): 64.03% and 64%

## O=C(O)CC[C@H](NC(=O)Nc1ccc(C(F)(F)F)cc1)C(=O)O [SSA 2]
[1]
  Percentage inhibition of bacterial growth, PAO1 (P. aeruginosa): -11.25% and −11%
[4]
  Polydispersity index (%): 18.2 (± 1.1) %
  dH (DLS intensity distribution peak 1 maxima): 140 nm
[2]; 5.6 mM, D2O 5.0% EtOH, 298 K
  (Q) 1H NMR spectroscopy, proportion NMR silent, acid or anion: 39.8% and ~40%
  (Q) 1H NMR spectroscopy, proportion NMR silent, cation: 36.3% and 36%
[2]; ~112 mM, DMSO-d6 1.0% DCM
  (Q) 1H NMR, proportion NMR silent, SSA acid or anion: 0%
  (Q) 1H NMR, proportion NMR silent, cation: 0%
[3]
  Percentage inhibition of bacterial growth, NCTC 12923 (E. coli): 6.06% and 6%

## O=C(O)CC[C@@H](NC(=O)Nc1ccc(C(F)(F)F)cc1)C(=O)O [SSA 3]
[1]; listed as 3
  Percentage inhibition of bacterial growth, PAO1 (P. aeruginosa): -35.71% and −36%
[4]; listed as 3
  DLS Peak 2 maxima: 1410 nm
  Polydispersity index (%): 20.2 (± 0.7) %
  dH (DLS intensity distribution peak 1 maxima): 154 nm
[2]; 5.6 mM, D2O 5.0% EtOH, 298 K, listed as 3
  (Q) 1H NMR spectroscopy, proportion NMR silent, acid or anion: 34%
[2]; ~112 mM, DMSO-d6 1.0% DCM
  (Q) 1H NMR, proportion NMR silent, SSA acid or anion: 0%
[3]; listed as 3
  Percentage inhibition of bacterial growth, NCTC 12923 (E. coli): 59.91% and 60%

## O=C(O)CC[C@H](NC(=O)Nc1ccc(Br)cc1)C(=O)O [SSA 9]
[4]; listed as 9
  Polydispersity index (%): 25.6 (± 1.0) %
  dH (DLS intensity distribution peak 1 maxima): 178 nm
[2]; 5.6 mM, D2O 5.0% EtOH, 298 K, listed as 9
  (Q) 1H NMR spectroscopy, proportion NMR silent, acid or anion: 40.9% and 41%
[3]; listed as 9
  Percentage inhibition of bacterial growth, NCTC 12923 (E. coli): 62.96% and 63%
